# Data from patent publication US9505749B2, “Quinazolinone compounds and derivatives thereof” (AMGEN INC., priority 2012, dated 2016).
# Like-named read-outs stand apart in the source and are kept apart here.
# Legend:
# [1] = biological target: 6×HIS-tankyrase1 (1091-1325) (Homo sapiens (Human), UniProt O95271); assay: Tankyrase 1 biochemical assay (AlphaLisa, PARsylation); conditions: 400 nM NAD, 60 minutes at RT; read-out: TNKS1 IC50
# [2] = biological target: 6×HIS-tankyrase 2 (946-1162) (Homo sapiens (Human), UniProt Q9H2K2); assay: Tankyrase 2 biochemical assay (AlphaLisa, PARsylation); conditions: 250 nM NAD; read-out: TNKS2 IC50
# [3] = tested on: Axin2 accumulation in SW480 cells; assay: Axin2 384 immunofluorescence assay; format: cell-based; conditions: Homo sapiens; SW480 cells, 24 hours; read-out: Axin2 384 IF EC50
# [4] = tested on: 8×TCF promoter-driven Firefly luciferase (Wnt reporter) in DLD-1 colorectal cells; assay: DLD-1-STF assay, constitutively activated Wnt pathway reporter; format: cell-based; conditions: Homo sapiens
# Method: DLD-1 colorectal cells engineered with an 8×TCF promoter-driven Firefly (FF) luciferase gene (Wnt reporter) along with an EF1a promoter-driven Renilla (RN) luciferase gene (control reporter) were used to measure the potency of tankyrase compounds in the context of the constitutively activated Wnt pathway due to mutated APC in colorectal cancer cells. The engineered DLD-1 cells were plated (45 μL) at a density of 10,000 cells/well in black, clear-bottom, 96-well View plates (PerkinElmer) in normal growth medium (RPMI with 10% FBS with no antibiotics). Tankyrase inhibitors (5 μL) were transferred to cells from a three-fold serially diluted compound plate. A 10-point dilution series was tested starting at a concentration (10 μM final concentration in assay). Column 6 contained only DMSO and served as the “HI” control. A potent Tankyrase inhibitor was used at a final concentration of 10 uM in column 12 which served as the “LO” control. […] The Dual-Glo Reagents (Promega) were added as directed by manufacturer to assay the FF and RN luciferase activity. Luciferase activity was measures using the EnVision multilabel plate reader (PerkinElmer).
# PARP1 = PARP1 (Homo sapiens (Human), UniProt P09874); assay: PARP1 biochemical assay (Trevigen kit)
# Source text: PARP1 biochemical assay was purchased as a kit from Trevigen (cat.#4676-096-K) and used per manufacturers recommendations.
# PARP2 = PARP2 (Homo sapiens (Human), UniProt Q9UGN5); assay: PARP2 biochemical assay (BPS kit)
# [5] = tested on: total β-catenin in SW480 colorectal cells; assay: Total β-catenin MSD 96-well plate assay for SW480 cells; conditions: Homo sapiens, SW480, read-out: SW480-Total beta-catenin (TBC) IC50 IP
# [6] = DLD-1, read-out: DLD1-STF-FF/RL*100 IC50
# Chain of PARP1 (P09874 whole entry): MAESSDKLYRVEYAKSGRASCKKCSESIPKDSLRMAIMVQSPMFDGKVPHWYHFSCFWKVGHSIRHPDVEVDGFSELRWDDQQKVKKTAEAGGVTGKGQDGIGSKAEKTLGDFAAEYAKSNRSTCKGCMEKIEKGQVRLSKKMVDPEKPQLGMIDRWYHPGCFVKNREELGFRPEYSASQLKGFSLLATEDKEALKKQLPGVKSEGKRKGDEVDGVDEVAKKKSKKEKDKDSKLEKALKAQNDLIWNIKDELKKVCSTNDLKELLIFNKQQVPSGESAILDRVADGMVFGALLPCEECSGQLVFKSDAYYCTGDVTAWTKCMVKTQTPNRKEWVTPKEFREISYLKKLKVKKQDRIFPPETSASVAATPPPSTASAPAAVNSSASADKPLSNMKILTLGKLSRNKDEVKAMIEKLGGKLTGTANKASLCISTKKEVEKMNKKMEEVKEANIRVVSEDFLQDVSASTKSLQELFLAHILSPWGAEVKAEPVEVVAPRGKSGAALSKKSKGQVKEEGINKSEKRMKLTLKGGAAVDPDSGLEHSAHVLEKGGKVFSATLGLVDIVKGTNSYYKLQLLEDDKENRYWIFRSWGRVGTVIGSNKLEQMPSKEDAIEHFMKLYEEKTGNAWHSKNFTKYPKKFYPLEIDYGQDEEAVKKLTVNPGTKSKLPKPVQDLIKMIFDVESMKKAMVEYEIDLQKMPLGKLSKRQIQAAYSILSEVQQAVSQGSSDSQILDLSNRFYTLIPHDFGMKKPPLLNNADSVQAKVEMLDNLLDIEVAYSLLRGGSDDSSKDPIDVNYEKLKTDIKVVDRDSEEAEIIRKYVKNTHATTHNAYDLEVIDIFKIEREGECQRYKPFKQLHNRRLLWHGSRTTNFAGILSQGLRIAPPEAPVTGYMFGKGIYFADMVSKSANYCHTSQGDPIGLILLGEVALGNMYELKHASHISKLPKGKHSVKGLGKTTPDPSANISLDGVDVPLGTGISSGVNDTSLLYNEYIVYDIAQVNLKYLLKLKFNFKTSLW
# Chain of PARP2 (Q9UGN5 whole entry): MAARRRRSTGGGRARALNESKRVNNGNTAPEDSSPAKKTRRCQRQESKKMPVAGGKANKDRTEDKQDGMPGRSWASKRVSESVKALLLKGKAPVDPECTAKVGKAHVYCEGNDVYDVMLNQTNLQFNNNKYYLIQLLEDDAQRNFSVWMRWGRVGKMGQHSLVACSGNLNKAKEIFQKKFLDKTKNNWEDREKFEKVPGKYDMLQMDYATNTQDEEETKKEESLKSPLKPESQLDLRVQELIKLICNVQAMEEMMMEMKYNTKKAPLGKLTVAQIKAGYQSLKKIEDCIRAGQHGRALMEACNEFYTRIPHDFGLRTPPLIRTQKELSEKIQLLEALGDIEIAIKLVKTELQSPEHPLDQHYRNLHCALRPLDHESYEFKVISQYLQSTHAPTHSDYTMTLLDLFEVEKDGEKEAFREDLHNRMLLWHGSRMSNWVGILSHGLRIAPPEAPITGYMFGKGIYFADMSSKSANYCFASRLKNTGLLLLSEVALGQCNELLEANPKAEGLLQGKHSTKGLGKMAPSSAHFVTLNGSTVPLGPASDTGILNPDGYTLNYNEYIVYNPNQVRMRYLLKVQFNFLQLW
# Chain of 6×HIS-tankyrase1 (1091-1325) (O95271 1091-1325): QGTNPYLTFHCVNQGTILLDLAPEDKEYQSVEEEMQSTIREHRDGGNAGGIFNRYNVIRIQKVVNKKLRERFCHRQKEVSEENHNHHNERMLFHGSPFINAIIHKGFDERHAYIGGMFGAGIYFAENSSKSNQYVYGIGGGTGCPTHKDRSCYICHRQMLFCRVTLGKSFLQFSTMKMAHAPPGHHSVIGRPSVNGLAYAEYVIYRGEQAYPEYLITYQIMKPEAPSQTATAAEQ
# Chain of 6×HIS-tankyrase 2 (946-1162) (Q9H2K2 946-1162): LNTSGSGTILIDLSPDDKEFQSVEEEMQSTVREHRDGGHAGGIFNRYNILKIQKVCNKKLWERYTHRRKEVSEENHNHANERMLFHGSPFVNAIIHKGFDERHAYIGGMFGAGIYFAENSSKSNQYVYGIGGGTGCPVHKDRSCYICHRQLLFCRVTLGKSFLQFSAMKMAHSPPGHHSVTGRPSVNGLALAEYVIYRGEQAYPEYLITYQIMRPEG
SMILES,IC50 [1],IC50 [2],EC50 [3],"IC50 ([4]; DLD-1 cells, 40 to 48 hours, read-out: DLD1-STF-FF/RL*100 IC50)",IC50 (PARP1),IC50 (PARP2),IC50 [5],"IC50 [4, 6]"
"N#Cc1ccc(O[C@H]2CC[C@H](NC(=O)CCCc3nc4ccccc4c(=O)[nH]3)CC2)cc1Cl [Example 64, N-(trans-4-(3-chloro-4-cyanophenoxy)cyclohexyl)-4-(4-oxo-3,4-dihydro-2-quinazolinyl)butanamide]",0.00105 µM,0.00052 µM,0.0609 µM,0.00126 µM,0.257 µM,0.288 µM,0.0266 µM,
"O=C(CCSc1nc2ccccc2c(=O)[nH]1)N[C@H]1CC[C@H](Oc2ccccn2)CC1 [Example 107, 3-((4-oxo-3,4-dihydroquinazolin-2-yl)thio)-N-((1 r,4r)-4-(pyridin-2-yloxy)cyclohexyl) propanamide]",,,0.0166 µM,,> 85 µM,3.35 µM,0.0154 µM,0.00133 µM
"O=C(CCSc1nc2ccccc2c(=O)[nH]1)N[C@H]1CC[C@H](Oc2ccncc2)CC1 [Example 108, 3-((4-oxo-3,4-dihydroquinazolin-2-yl)thio)-N-((1 r,4r)-4-(pyridin-4-yloxy)cyclohexyl) propanamide]",,,0.00679 µM,,2.76 µM,3.22 µM,0.0069 µM,0.000682 µM
"O=C(CCCSc1nc2ccccc2c(=O)[nH]1)N[C@H]1CC[C@H](c2nnc(-c3ccccc3)o2)CC1 [Example 110, 4-((4-oxo-3,4-dihydroquinazolin-2-yl)thio)-N-((1r,4r)-4-(5-phenyl-1,3,4-oxadiazol-2-yl)cyclohexyl)butanamide]",,,0.132 µM,,0.376 µM,1.44 µM,0.104 µM,0.00178 µM
"O=C(CCSc1nc2ccccc2c(=O)[nH]1)N[C@H]1CC[C@H](Oc2cccc(Cl)c2)CC1 [Example 112, N-((1r,4r)-4-(3-chlorophenoxy)cyclohexyl)-3-((4-oxo-3,4-dihydroquinazolin-2-yl)thio) propanamide]",,,0.105 µM,,> 85 µM,,0.12 µM,> 0.05 µM
"N#Cc1cc(O[C@H]2CC[C@H](NC(=O)CCSc3nc4ccccc4c(=O)[nH]3)CC2)ccc1Cl [Example 113, N-((1r,4r)-4-(4-chloro-3-cyanophenoxy)cyclohexyl)-3-((4-oxo-3,4-dihydroquinazolin-2-yl)thio)propanamide]",,,0.056 µM,,> 85 µM,,0.0242 µM,> 0.05 µM
"N#Cc1ccc(O[C@H]2CC[C@H](NC(=O)CCSc3nc4ccccc4c(=O)[nH]3)CC2)cc1Cl [Example 114, N-((1r,4r)-4-(3-chloro-4-cyanophenoxy)cyclohexyl)-3-((4-oxo-3,4-dihydroquinazolin-2-yl)thio)propanamide]",,,0.00842 µM,,> 85 µM,,0.00808 µM,0.00108 µM
"O=C(CCSc1nc2c(c(=O)[nH]1)CCCC2)N[C@H]1CC[C@H](c2nnc(-c3ccccc3)o2)CC1 [Example 115, 3-((4-oxo-3,4,5,6,7,8-hexahydroquinazolin-2-yl)thio)-N-(trans-4-(5-phenyl-1,3,4-oxadiazol-2-yl)cyclohexyl)propanamide]",,,0.0144 µM,,3.86 µM,1.12 µM,0.011 µM,0.0013 µM
